In paper PMC9794768, “Molecular mechanism of substrate recognition by folate transporter SLC19A1” (Cell Discovery, 2022):

How the values were obtained:
SLC19A1 [1] = molecular target: T1, SLC19A1 (Homo sapiens, UniProt P41440); assay: FSEC-based thermostability in detergent lysate; [3H]-MTX uptake competition in HEK293F cells at […]; format: cell-based; set-up: GFP-tagged SLC19A1
T1 sequence (P41440 1-591): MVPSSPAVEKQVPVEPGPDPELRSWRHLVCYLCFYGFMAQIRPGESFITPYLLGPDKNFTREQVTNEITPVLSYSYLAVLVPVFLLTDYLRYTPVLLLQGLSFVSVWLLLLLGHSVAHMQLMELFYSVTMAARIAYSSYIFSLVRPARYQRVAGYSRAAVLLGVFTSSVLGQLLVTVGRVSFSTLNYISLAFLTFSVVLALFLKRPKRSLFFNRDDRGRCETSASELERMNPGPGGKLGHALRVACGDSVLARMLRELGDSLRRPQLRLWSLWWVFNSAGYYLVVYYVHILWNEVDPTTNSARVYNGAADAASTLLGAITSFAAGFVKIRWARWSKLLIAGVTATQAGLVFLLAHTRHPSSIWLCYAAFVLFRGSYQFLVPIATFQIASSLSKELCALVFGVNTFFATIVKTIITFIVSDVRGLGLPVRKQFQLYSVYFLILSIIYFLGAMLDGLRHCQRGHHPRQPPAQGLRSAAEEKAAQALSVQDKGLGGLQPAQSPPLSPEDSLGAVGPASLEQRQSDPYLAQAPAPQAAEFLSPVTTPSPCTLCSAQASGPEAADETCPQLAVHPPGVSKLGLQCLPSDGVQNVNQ

SLC19A1 [2] = molecular target: T1, SLC19A1; assay: [3H]-MTX uptake competition in HEK293F cells at […]; FSEC-based thermostability in detergent lysate; format: cell-based; set-up: GFP-tagged SLC19A1
SLC19A1 [3] = molecular target: T1, SLC19A1; assay: cryo-EM structure at […] Å and MST; also [3H]-MTX uptake inhibition (IC50 […]) and FSEC thermostability; format: binding; set-up: full-length SLC19A1 (MST); BRIL-SLC19A1/Fab/Nb (cryo-EM)

Compound: Nc1nc(=O)c2nc(CNc3ccc(C(=O)N[C@@H](CCC(=O)O)C(=O)O)cc3)cnc2[nH]1 [folate]
- FSEC-based thermostability in detergent lysate; [3H]-MTX uptake competition in H (SLC19A1 [1]): the well-documented substrates 5-MTHF and folate significantly enhanced the thermostability of SLC19A1

Compound: Cc1ncc(C[n+]2csc(CCOP(=O)(O)O)c2C)c(N)n1 [TMP, Thiamine monophosphate]
- [3H]-MTX uptake competition in HEK293F cells at 200 μM; FSEC-based thermostabili (SLC19A1 [2]): TMP effectively competed with [^3H]-MTX in the transporter assay and enhanced the thermostability of SLC19A1

Compound: Cc1ncc(C[n+]2csc(CCO[P@](=O)(O)OP(=O)(O)O)c2C)c(N)n1 [TPP, thiamine pyrophosphate]
- Kd (SLC19A1 [3]): 327 ± 76 µM
